Data taken from patent US8889662B2, “Method to alter sex ratios in avian offspring” (University of Georgia Research Foundation, Inc., priority 2009, dated 2014).

Experiments:
[1] = Plasma corticosterone in hens after CORT injections (FIG. 9); format: in vivo, chicken; settings: 0.5 mg CORT in peanut oil (physiologically high dose)
Protocol: FIG. 9. Plasma corticosterone concentrations in hens after injections of 1.5 mg CORT, 0.5 mg CORT, oil control, and uninjected.
To test for a dose-dependent effect of CORT on sex ratios, female leghorns will be housed in layer cages, provided access to food and water ad libitum and will be randomly divided into one of seven treatment groups (n=72 each). […] To test whether CORT is a mediator in the sex determination process, one group from each of these treatment sets will also receive a dose of RU-486 (0.5 mg dissolved in 500 ul dH20), a glucocorticoid receptor blocker, administered 15 min prior to the injection treatment itself. […] As a result, treatment with RU-486 should not interrupt normal laying cycles. One final group will receive no injection treatment.

[2] = test system: laying hens; assay: Preliminary studies with silastic CORT implants: CORT concentrations and laying patterns; format: in vivo, chicken
Protocol: Additionally, concentrations of CORT and three other hormonal factors known to interact with CORT and ovarian follicular development—testosterone, progesterone, and leptin—will be measured in blood samples taken 4 h after ovulation as well as 4 and 6 h prior to ovulation in females from both treatment groups on days 3, 6, and 12 (to correspond with ovulation of collected eggs above). CORT concentrations will be measured in the yolk of each collected egg as well. […] Additionally, laying patterns were monitored for 2 weeks following implantation and 100% of birds implanted with CORT implants continued to lay at a similar frequency compared to before implantation, illustrating that we will be able to collect eggs from birds following this chronic implant treatment.

[3] = test system: white leghorn and brown hyline hens; assay: Example 1: offspring sex after a single maternal CORT injection, chickens; format: in vivo, chicken; settings: 2 mg CORT about 19 h after a mid-sequence egg, p=0.002 vs controls, p<0.0001 vs non-injected
Protocol: This experiment was similar to the previous one in that a single injection of CORT was provided at the time of meiotic segregation and the sexes of the resulting eggs were quantified. Laying patterns of female white leghorn and brown hyline hens were monitored and timed. Females that were laying between 1000 and 1200 h EST were included in the experiment. Females were artificially inseminated using pooled semen from 5-10 roosters at two time points prior to treatment.
Approximately 19 h following the appearance of a mid-sequence egg, females received one of three treatments: (1) a high dose of CORT (2 mg in 0.5 ml peanut oil), (2) a control treatment (0.5 ml peanut oil), or (3) no injection treatment. The egg corresponding to the next ovulation event was labeled, collected, and incubated at 37° C. for a period of 7 days to allow for embryonic development. Embryos were separated and sexed using PCR based techniques as described above. The percentage of females producing male offspring in each group were calculated and compared using chi square analyses. […] CORT was quantified using a standard radioimmunoassay and CORT concentrations were log transformed and analyzed using an analysis of variance (ANOVA).

[4] = Example 3: plasma corticosterone radioimmunoassay after injection, laying hens; format: in vivo, chicken; settings: 1.5 mg
Protocol: Radioimmunoassays. Blood samples were collected from a separate set of hens to verify that CORT treatment elevated plasma corticosterone during the completion of meiotic segregation. Relative to the injections described above (5 h prior to ovulation), blood samples were collected from half of the CORT, CONT, and UN-treated hens at 1 h and the other half at 4 h (FIG. 6). Blood samples were collected from the brachial vein within 3 min of initial handling to avoid variation due to handling stress (Romero and Reed, 2005, Comp Biochem Physiol A; 140:73-79). Extraction and radioimmunoassay of plasma corticosterone were completed as described by Mendonça et al. (Mendonça et al., 1996, Horm Behav; 30:153-161). Twenty-four blood samples were analyzed from UN-treated hens (12 from each time period), 12 from CONT-treated hens (5 and 7 at 1 h and 4 h, respectively), and 12 from CORT-treated hens (6 from each time period).
Statistical Analysis. […] All hormone data were non-normally distributed and were log-transformed for statistical analysis. Plasma corticosterone concentrations were analyzed among treatment groups and time points using an ANOVA and differences among individual treatment groups were analyzed using Fisher's PLSD. Statistical analyses were carried out using Statview software (SAS Institute, Cary, N.C. USA).

[5] = Testosterone concentrations after a pharmacological dose of CORT (Examples 1 and 2); format: in vivo, zebra finches; settings: within 1-3 hours of administration
[6] = test system: zebra finch (Taeniopygia guttata); assay: Example 2: primary sex ratio after hormone injection five hours before ovulation, zebra finches; format: in vivo
Protocol: Zebra finch (Taeniopygia guttata) pairs obtained from a breeding colony maintained at The University of Georgia were housed in individual cages and provided feed and water ad libidumn. Birds were kept under a 14 hour (h) light (L):10 h dark (D) light schedule. Egg-laying was monitored daily and eggs marked to record sequence order. Females were injected intraperitoneally after the first or second egg of the clutch was laid with one of three treatments: 20 μg of CORT dissolved in 50 μl peanut oil and 10% ethanol (CORT), 20 μg of progesterone dissolved in […] and 10% ethanol (P), or 50 μl of control peanut oil (C). A fourth set of females received no injection treatment (UN). […] The follicle ovulating 5 hours after injection, was laid approximately 36 hours after injection (FIG. 3). Ovulating follicles exposed to treatments were laid as the 3rd or 4th egg in the sequence (3rd egg if treatment was administered on the day the 1st egg was laid and the 4th egg in the sequence if treatment was administered on the day the 2nd egg was laid). Eggs were allowed to incubate in the nest for 8-12 days prior to collection to allow sufficient embryonic development for DNA extraction and molecular sexing analyses. Occasionally these treatments disrupted the oviposition immediately following the injection. Females that delayed oviposition after treatment were excluded from analysis because it was not possible to determine whether the egg collected the following day was from the ovulation event that occurred immediately following injection or from a delayed oviposition of the follicle ovulated the day prior to injection. Females that delayed oviposition were allowed to complete the clutch after which the treatment was repeated during the next clutch. […] Only 1/10 females treated with progesterone laid successfully. For this reason, progesterone treatments were eliminated from further analyses.
Molecular Sexing. Genomic DNA was extracted from embryonic tissue using a standard salt extraction method (Lambert et al., 2000, Journal of Neuroscience Methods; 95:127-132). Portions of the W-linked avian CHD (CHD-W) on females and its non W-linked homologue (CHD-Z) were amplified using polymerase chain reaction (PCR) with primers P2 and P8 (Griffiths et al., 1998, Mol Ecol; 7:1071-1075). […] The presence of the W chromosome was determined through the visualization of two bands while males were identified when only one band was produced.
Twenty-one target embryos were successfully sexed from control females, 16 from non-injected females, and 18 from CORT treated females. […] Differences in the number of females that produced males was analyzed among treatment groups by performing a logistic regression in StatView (SAS Institute, Cary, N.C. USA) using sex as the response variable (male=1). […]

For C[C@]12C[C@H](O)[C@H]3[C@@H](CCC4=CC(=O)CC[C@@]43C)[C@@H]1CC[C@@H]2C(=O)CO [corticosterone], the CORT concentrations reached [1] was “below 40 ng/ml”, the “implanted birds that continued to lay at a similar frequency” value ([2]; silastic CORT implants, laying monitored for 2 weeks after implantation) was 100% and the “CORT concentrations after silastic CORT implants” value ([2]; within 2 d of implantation, persisted 1 week after implantation) was “significantly elevated CORT concentrations”. The “likelihood of male embryos compared to controls and non-injected females” value [3] was “significantly more likely to be male”, the “plasma corticosterone levels compared to CONT and UN treated hens” value ([4]; 1 h after injection, p<0.0001 in both cases) was “significantly raised corticosterone levels” and the plasma corticosterone concentrations ([4]; four hours post-injection, CORT-UN p<0.01, CORT-CONT p=0.07) was “only significantly elevated in CORT-treated hens”. The “testosterone concentrations after CORT” value [5] was “testosterone concentrations increased significantly”, the “males produced (primary sex ratio)” value ([6]; 20 ug intraperitoneally five hours before ovulation, 3rd or 4th egg, control injected 61.9%, uninjected 37.5%) was 72% and the “male embryos produced compared to non-manipulated females (FIG. 5 legend)” value ([6]; 20 ug, no significant difference from control injected females) was “produced significantly more male embryos”. It also gave a Proportion male ([6]; eggs laid before treatment by the same treatment group (baseline)) of 0.4375 and a Proportion male ([6]; target eggs (Treatment), 20 ug) of 0.72.
